One experiment has as its target T1, human recombinant GR (Homo sapiens, UniProt P04150).
T1 construct: purchased PanVera P2812
T1 sequence (P04150 1-777): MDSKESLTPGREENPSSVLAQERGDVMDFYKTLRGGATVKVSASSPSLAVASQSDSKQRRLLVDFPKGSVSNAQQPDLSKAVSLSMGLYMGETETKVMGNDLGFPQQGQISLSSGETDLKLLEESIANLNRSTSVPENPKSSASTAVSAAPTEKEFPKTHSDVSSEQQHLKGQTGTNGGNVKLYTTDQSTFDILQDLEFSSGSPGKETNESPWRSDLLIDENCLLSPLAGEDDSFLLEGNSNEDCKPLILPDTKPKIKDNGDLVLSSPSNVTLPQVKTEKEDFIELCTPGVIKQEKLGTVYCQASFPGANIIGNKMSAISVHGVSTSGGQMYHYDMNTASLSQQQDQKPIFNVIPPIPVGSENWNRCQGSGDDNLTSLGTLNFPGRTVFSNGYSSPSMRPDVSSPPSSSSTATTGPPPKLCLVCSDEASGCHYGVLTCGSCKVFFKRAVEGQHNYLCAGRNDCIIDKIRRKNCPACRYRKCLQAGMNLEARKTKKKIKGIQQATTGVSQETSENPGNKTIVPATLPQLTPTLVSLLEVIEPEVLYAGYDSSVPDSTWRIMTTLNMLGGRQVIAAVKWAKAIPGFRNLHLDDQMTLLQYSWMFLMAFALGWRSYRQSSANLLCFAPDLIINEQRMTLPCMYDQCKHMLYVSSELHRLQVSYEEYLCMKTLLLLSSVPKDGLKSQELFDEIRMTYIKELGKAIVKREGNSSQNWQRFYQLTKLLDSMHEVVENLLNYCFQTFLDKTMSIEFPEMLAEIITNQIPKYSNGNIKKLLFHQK
Description: Human glucocorticoid receptor (GR) fluorescence polarisation (FP) binding assay. The gist of the method: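 Competition fluorescence polarisation: 0.5 nM GS Red labelled glucocorticoid and 1 nM recombinant human GR with 8-point half-log compound series, 1% DMSO, 4 h room temperature, potassium phosphate pH 7.4 buffer with molybdate, EDTA, DTT. Affinity derived from the drop in polarisation, normalised to blank wells.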

The test system of experiment [1] is induction of TAT by dexamethasone in HepG2 cells. Description: HepG2 tyrosine aminotransferase (TAT) assay. The format is cell-based, human.
Where [2] appears, read: human recombinant GR, fluorescence polarisation binding assay, read-out: GR binding.
The mark [3] stands for this setting: HepG2 cells, challenge of 100 nM dexamethasone, Ki from IC50 by Cheng and Prusoff equation.

Structures are written as SMILES. Like-named read-outs stand apart in the source and are kept apart here.

For the molecule `Cc1ccnc(C(=O)[C@]23Cc4cnn(-c5ccc(F)cc5)c4C=C2CCN(S(=O)(=O)c2cc(F)cc(F)c2)C3)c1` [Example 11W, (R)-(6-((3,5-difluorophenyl)sulfonyl)-1-(4-fluorophenyl)-4,4a,5,6,7,8-hexahydro-1H-pyrazolo[3,4-g]isoquinolin-4a-yl)(4-methylpyridin-2-yl)methanone], the Ki at human recombinant GR (setting [2]) was below 0.5 nM; in experiment [1] (setting [3]), below 20 nM.
On to `O=C(c1ccccn1)[C@]12Cc3cnn(-c4ccc(F)cc4)c3C=C1CCN(S(=O)(=O)c1ccnc(C(F)(F)F)c1)C2` [Example 11BE, (R)-(1-(4-fluorophenyl)-6-((2-(trifluoromethyl)pyridin-4-yl)sulfonyl)-4,4a,5,6,7,8-hexahydro-1H-pyrazolo[3,4-g]isoquinolin-4a-yl)(pyridin-2-yl)methanone], for which the Ki was below 0.5 nM on human recombinant GR (setting [2]) and 20 to 100 nM in experiment [1] (setting [3]).
As to `O=C(c1cocn1)[C@]12Cc3cnn(-c4ccc(F)cc4)c3C=C1CCN(S(=O)(=O)c1ccc(C(F)(F)F)cc1)C2` [Example 1E, (R)-(1-(4-fluorophenyl)-6-((4-(trifluoromethyl)phenyl)sulfonyl)-4,4a,5,6,7,8-hexahydro-1H-pyrazolo[3,4-g]isoquinolin-4a-yl)(oxazol-4-yl)methanone], the Ki on human recombinant GR was below 0.5 nM; in experiment [1] (setting [3]) it was 20 to 100 nM.
For the molecule `CCCn1ncc(S(=O)(=O)N2CCC3=Cc4c(cnn4-c4ccc(F)cc4)C[C@]3(C(=O)c3cscn3)C2)n1` [Example 11CQ, (R)-(1-(4-fluorophenyl)-6-((2-propyl-2H-1,2,3-triazol-4-yl)sulfonyl)-4,4a,5,6,7,8-hexahydro-1H-pyrazolo[3,4-g]isoquinolin-4a-yl)(thiazol-4-yl)methanone], the Ki at human recombinant GR (setting [2]) was below 0.5 nM; in experiment [1] (setting [3]) it was below 20 nM.
`Cc1ccc(S(=O)(=O)N2CCC3=Cc4c(cnn4-c4ccc(F)cc4)C[C@]3(C(=O)c3ccccn3)C2)cc1F` [Example 2J, (R)-(6-((3-fluoro-4-methylphenyl)sulfonyl)-1-(4-fluorophenyl)-4,4a,5,6,7,8-hexahydro-1H-pyrazolo[3,4-g]isoquinolin-4a-yl)(pyridin-2-yl)methanone]: the Ki on human recombinant GR (setting [2]) is below 0.5 nM; in experiment [1] (setting [3]) it was below 20 nM.
As to `COCCn1cc(S(=O)(=O)N2CCC3=Cc4c(cnn4-c4ccc(F)cc4)C[C@]3(C(=O)c3ccccn3)C2)cn1` [Example 11CB, (R)-(1-(4-fluorophenyl)-6-((1-(2-methoxyethyl)-1H-pyrazol-4-yl)sulfonyl)-4,4a,5,6,7,8-hexahydro-1H-pyrazolo[3,4-g]isoquinolin-4a-yl)(pyridin-2-yl)methanone], the Ki on human recombinant GR (setting [2]) was below 0.5 nM; in experiment [1] (setting [3]), below 20 nM.
For `Cc1ccnc(C(=O)[C@]23Cc4cnn(-c5ccc(F)cc5)c4C=C2CCN(S(=O)(=O)c2cn(C)cn2)C3)c1` [Example 11V, (R)-(1-(4-fluorophenyl)-6-((1-methyl-1H-imidazol-4-yl)sulfonyl)-4,4a,5,6,7,8-hexahydro-1H-pyrazolo[3,4-g]isoquinolin-4a-yl)(4-methylpyridin-2-yl)methanone], in that order: below 0.5 nM and 20 to 100 nM.
For the molecule `O=C(c1ccccn1)[C@]12Cc3cnn(-c4ccc(F)c(F)c4)c3C=C1CCN(S(=O)(=O)c1ccc(Cl)c(Cl)c1)C2` [Example 15C, (R)-(6-((3,4-dichlorophenyl)sulfonyl)-1-(3,4-difluorophenyl)-4,4a,5,6,7,8-hexahydro-1H-pyrazolo[3,4-g]isoquinolin-4a-yl)(pyridin-2-yl)methanone], the Ki was below 0.5 nM on human recombinant GR (setting [2]) and 20 to 100 nM in experiment [1] (setting [3]).
For `Cc1cnc(C(=O)[C@]23Cc4cnn(-c5ccc(F)cc5)c4C=C2CCN(S(=O)(=O)c2ccn(C)n2)C3)s1` [Example 12S, (R)-(1-(4-fluorophenyl)-6-((1-methyl-1H-pyrazol-3-yl)sulfonyl)-4,4a,5,6,7,8-hexahydro-1H-pyrazolo[3,4-g]isoquinolin-4a-yl)(5-methylthiazol-2-yl)methanone], in that order: below 0.5 nM and below 20 nM.
Consider `COc1ccc(S(=O)(=O)N2CCC3=Cc4c(cnn4-c4ccc(F)cc4)C[C@]3(C(=O)c3ccccn3)C2)cc1C` [Example 11B, (R)-(1-(4-fluorophenyl)-6-((4-methoxy-3-methylphenyl)sulfonyl)-4,4a,5,6,7,8-hexahydro-1H-pyrazolo[3,4-g]isoquinolin-4a-yl)(pyridin-2-yl)methanone], for which the Ki on human recombinant GR (setting [2]) was below 0.5 nM; in experiment [1] (setting [3]), below 20 nM.
Consider `CCCn1cc(S(=O)(=O)N2CCC3=Cc4c(cnn4-c4ccc(F)cc4)C[C@]3(C(=O)c3cscn3)C2)nn1` [Example 11CS, (R)-(1-(4-fluorophenyl)-6-((1-propyl-1H-1,2,3-triazol-4-yl)sulfonyl)-4,4a,5,6,7,8-hexahydro-1H-pyrazolo[3,4-g]isoquinolin-4a-yl)(thiazol-4-yl)methanone], for which the Ki is below 0.5 nM on human recombinant GR (setting [2]) and below 20 nM in experiment [1] (setting [3]).
In the case of `Cn1cc(S(=O)(=O)N2CCC3=Cc4c(cnn4-c4ccc(F)cc4)C[C@]3(C(=O)c3cc(C(F)(F)F)ccn3)C2)nn1` [Example 11CG, (R)-(1-(4-fluorophenyl)-6-((1-methyl-1H-1,2,3-triazol-4-yl)sulfonyl)-4,4a,5,6,7,8-hexahydro-1H-pyrazolo[3,4-g]isoquinolin-4a-yl)(4-(trifluoromethyl)pyridin-2-yl)methanone], the Ki at human recombinant GR (setting [2]) was below 0.5 nM; in experiment [1] (setting [3]), below 20 nM.
Turning to `N#Cc1cccc(S(=O)(=O)N2CCC3=Cc4c(cnn4-c4ccc(F)cc4)C[C@]3(C(=O)c3cc(C(F)(F)F)ccn3)C2)c1` [Example 11BL, (R)-3-((1-(4-fluorophenyl)-4a-(4-(trifluoromethyl)picolinoyl)-4a,5,7,8-tetrahydro-1H-pyrazolo[3,4-g]isoquinolin-6 (4H)-yl)sulfonyl)benzonitrile], the figures for the Ki (at human recombinant GR (setting [2]); in experiment [1] (setting [3])) were below 0.5 nM and below 20 nM, respectively.
For `O=C(c1ccccn1)[C@]12Cc3cnn(-c4ccc(F)cc4)c3C=C1CCN(S(=O)(=O)c1cccc(OC(F)F)c1)C2` [Example 11L, (R)-(6-((3-(difluoromethoxy)phenyl)sulfonyl)-1-(4-fluorophenyl)-4,4a,5,6,7,8-hexahydro-1H-pyrazolo[3,4-g]isoquinolin-4a-yl)(pyridin-2-yl)methanone], in that order: below 0.5 nM and below 20 nM.
Take `Cc1ccnc(C(=O)[C@]23Cc4cnn(-c5ccc(F)cc5)c4C=C2CCN(S(=O)(=O)c2cnc4c(c2)OCCN4C)C3)c1` [Example 11AM, (R)-(1-(4-fluorophenyl)-6-((4-methyl-3,4-dihydro-2H-pyrido[3,2-b][1,4]oxazin-7-yl)sulfonyl)-4,4a,5,6,7,8-hexahydro-1H-pyrazolo[3,4-g]isoquinolin-4a-yl)(4-methylpyridin-2-yl)methanone]: the Ki on human recombinant GR (setting [2]) was below 0.5 nM; in experiment [1] (setting [3]) it was below 20 nM.
On to `Cc1[nH]ncc1S(=O)(=O)N1CCC2=Cc3c(cnn3-c3ccc(F)cc3)C[C@]2(C(=O)c2cc(C(F)(F)F)ccn2)C1` [Example 11BK, (R)-(1-(4-fluorophenyl)-6-((5-methyl-1H-pyrazol-4-yl)sulfonyl)-4,4a,5,6,7,8-hexahydro-1H-pyrazolo[3,4-g]isoquinolin-4a-yl)(4-(trifluoromethyl)pyridin-2-yl)methanone], for which the Ki on human recombinant GR (setting [2]) was below 0.5 nM; in experiment [1] (setting [3]), below 20 nM.
For the molecule `O=C(c1ccccn1)[C@]12Cc3cnn(-c4cccnc4)c3C=C1CCN(S(=O)(=O)c1cccc(C(F)(F)F)c1)C2` [Example 15A, (R)-pyridin-2-yl(1-(pyridin-3-yl)-6-((3-(trifluoromethyl)phenyl)sulfonyl)-4,4a,5,6,7,8-hexahydro-1H-pyrazolo[3,4-g]isoquinolin-4a-yl)methanone], the Ki on human recombinant GR (setting [2]) was below 0.5 nM; in experiment [1] (setting [3]), 20 to 100 nM.
The matching figures for `Cc1ccnc(C(=O)[C@]23Cc4cnn(-c5ccc(F)cc5)c4C=C2CCN(S(=O)(=O)c2ccc4c(c2)OCCO4)C3)c1` [Example 11AR, (R)-(6-((2,3-dihydrobenzo[b][1,4]dioxin-6-yl)sulfonyl)-1-(4-fluorophenyl)-4,4a,5,6,7,8-hexahydro-1H-pyrazolo[3,4-g]isoquinolin-4a-yl)(4-methylpyridin-2-yl)methanone]: below 0.5 nM and below 20 nM.
As for `O=C(c1ccccn1)[C@]12Cc3cnn(-c4ccc(F)cc4)c3C=C1CCN(S(=O)(=O)c1cccc(C(F)(F)F)c1)C2` [Example 5C, (R)-(1-(4-fluorophenyl)-6-((3-(trifluoromethyl)phenyl)sulfonyl)-4,4a,5,6,7,8-hexahydro-1H-pyrazolo[3,4-g]isoquinolin-4a-yl)(pyridin-2-yl)methanone], the values for the Ki (at human recombinant GR; in experiment [1]) were below 0.5 nM and below 20 nM, respectively.
